Experimental data: PubChem BioAssay AID248 (DTP/NCI, 2004)
Toxic doses and inconclusive results are not listed. Cut-off read from the data, not from the text of the source: active = T/C of 150% or more; inactive = T/C below 125%.

Test system: L1210 leukemia ip in BDF1 mice, survival T/C
Experiment: NCI In Vivo Anticancer Drug Screen. Data for tumor model L1210 Leukemia (intraperitoneal) in B6D2F1 (BDF1) mice
Details: endpoint: mean survival time, higher = longer survival
Outline: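 Tumor was transplanted into mice, which were then dosed with test compound or vehicle alone. Survival was recorded for each group, and the treated figure was expressed relative to the control figure.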

[1] = dose: 100.0 mg/kg/injection, schedule: Q04DX003 (ip), vehicle: saline
[2] = dose: 200.0 mg/kg/injection, schedule: Q04DX003 (ip), vehicle: saline
[3] = dose: 400.0 mg/kg/injection, schedule: Q04DX003 (ip), vehicle: saline
[4] = dose: 100.0 mg/kg/injection, schedule: Q01DX001 (ip), vehicle: saline
[5] = dose: 200.0 mg/kg/injection, schedule: Q01DX001 (ip), vehicle: saline
[6] = dose: 100.0 mg/kg/injection, schedule: Q01DX009 (ip), vehicle: saline
[7] = dose: 400.0 mg/kg/injection, schedule: Q01DX001 (ip), vehicle: carboxymethylcellulose (CMC)
[8] = dose: 100.0 mg/kg/injection, schedule: Q04DX002 (ip), vehicle: saline
[9] = dose: 200.0 mg/kg/injection, schedule: Q04DX002 (ip), vehicle: saline
[10] = dose: 100.0 mg/kg/injection, schedule: Q04DX003 (ip), vehicle: Klucel (hydroxypropylcellulose) (HPC)
[11] = dose: 200.0 mg/kg/injection, schedule: Q04DX003 (ip), vehicle: Klucel (hydroxypropylcellulose) (HPC)
[12] = dose: 400.0 mg/kg/injection, schedule: Q04DX003 (ip), vehicle: Klucel (hydroxypropylcellulose) (HPC)
[13] = dose: 100.0 mg/kg/injection, schedule: Q04DX003 (ip), vehicle: saline with Tween-80
[14] = dose: 200.0 mg/kg/injection, schedule: Q04DX003 (ip), vehicle: saline with Tween-80
[15] = dose: 400.0 mg/kg/injection, schedule: Q04DX003 (ip), vehicle: saline with Tween-80
[16] = dose: 200.0 mg/kg/injection, schedule: Q01DX009 (ip), vehicle: saline
[17] = dose: 400.0 mg/kg/injection, schedule: Q01DX009 (ip), vehicle: saline
[18] = dose: 200.0 mg/kg/injection, schedule: Q01DX009 (ip), vehicle: saline sonified

Measured: T/C

O=C(Nc1ccc(C2=NCCN2)cc1)c1ccc(Br)c(C(=O)Nc2ccc(C3=NCCN3)cc2)c1
inactive: dose: 15.0 mg/kg/injection, schedule: Q01DX Z (ip), vehicle: saline 101 % of control | dose: 20.0 mg/kg/injection, schedule: Q01DX Z (ip), vehicle: water 102 % of control | dose: 30.0 mg/kg/injection, schedule: Q01DX Z (ip), vehicle: saline 117 % of control | dose: 30.0 mg/kg/injection, schedule: Q01DX Z (ip), vehicle: water 120 % of control

CC(=O)OC1CC2(CO2)C2CC=C(C)C2C2OC(=O)C(C)C12 (centres undefined)
inactive: dose: 12.5 mg/kg/injection, schedule: Q04DX002 (ip), vehicle: saline 110 % of control | dose: 25.0 mg/kg/injection, schedule: Q04DX002 (ip), vehicle: saline 100 % of control | dose: 50.0 mg/kg/injection, schedule: Q04DX002 (ip), vehicle: saline 95 % of control | dose: 100.0 mg/kg/injection, schedule: Q04DX002 (ip), vehicle: Klucel (hydroxypropylcellulose) (HPC) 90 % of control | dose: 200.0 mg/kg/injection, schedule: Q04DX002 (ip), vehicle: Klucel (hydroxypropylcellulose) (HPC) 100 % of control

CC12OC3C4C(=O)OC1C1OC4(C)C3C(=O)OC12
inactive: [1] 102 % of control | [2] 97 % of control | [3] 95 % of control

Nc1cccn2ncnc12
inactive: [4] 103 % of control | [5] 104 % of control | dose: 400.0 mg/kg/injection, schedule: Q01DX001 (ip), vehicle: saline 97 % of control

CC1(C)N=C(N)N=C(N)N1c1ccc(CCNS(=O)(=O)c2ccc(S(=O)(=O)F)cc2)cc1
inactive: dose: 0.8 mg/kg/injection, schedule: Q01DX009 (ip), vehicle: saline 97 % of control | dose: 4.0 mg/kg/injection, schedule: Q01DX009 (ip), vehicle: saline 104 % of control | dose: 20.0 mg/kg/injection, schedule: Q01DX009 (ip), vehicle: saline 103 % of control | [6] 103 % of control | dose: 500.0 mg/kg/injection, schedule: Q01DX009 (ip), vehicle: saline 108 % of control

CC(=O)NC1CCCCCC1I (centres undefined)
inactive: dose: 10.0 mg/kg/injection, schedule: Q01DX001 (ip), vehicle: saline 105 % of control | dose: 20.0 mg/kg/injection, schedule: Q01DX001 (ip), vehicle: saline 101 % of control | dose: 40.0 mg/kg/injection, schedule: Q01DX001 (ip), vehicle: saline 98 % of control

CCS(=O)(=O)c1ccc(NC(=O)OC(c2ccccc2)c2ccccc2)cc1
inactive: dose: 100.0 mg/kg/injection, schedule: Q01DX001 (ip), vehicle: carboxymethylcellulose (CMC) 94 % of control | dose: 200.0 mg/kg/injection, schedule: Q01DX001 (ip), vehicle: carboxymethylcellulose (CMC) 91 % of control | [7] 96 % of control

CCOP(=O)(OCC)OC(=O)N(CC)CC
inactive: [8] 112 % of control | [9] 120 % of control

NC(=O)NC(=O)CC1NC(=O)NC1=O (centres undefined)
inactive: [8] 103 % of control | [9] 106 % of control | dose: 400.0 mg/kg/injection, schedule: Q04DX002 (ip), vehicle: saline 87 % of control

CS(=O)(=O)c1ccc(F)cc1
inactive: [10] 103 % of control | [11] 103 % of control | [12] 97 % of control

CCC(O)(c1ccccc1)c1ccccc1
inactive: [13] 103 % of control | [14] 99 % of control | [15] 98 % of control

O=C1CCCC1CN1CCOCC1 (centres undefined)
inactive: [6] 92 % of control | [16] 96 % of control | [17] 94 % of control

O=c1[nH]cnc2c1ncn2C1OC(CI)C(O)C1O (centres undefined)
inactive: dose: 100.0 mg/kg/injection, schedule: Q01DX005 (ip), vehicle: saline 95 % of control | dose: 200.0 mg/kg/injection, schedule: Q01DX005 (ip), vehicle: saline 101 % of control

O=c1[nH]c(-c2ccccc2)nc2[nH]ncc12
inactive: [10] 105 % of control | [11] 92 % of control | [12] 87 % of control

O=Cc1ccc(N2CCOCC2)cc1
inactive: dose: 50.0 mg/kg/injection, schedule: Q01DX009 (ip), vehicle: Klucel (hydroxypropylcellulose) (HPC) 97 % of control | dose: 100.0 mg/kg/injection, schedule: Q01DX009 (ip), vehicle: Klucel (hydroxypropylcellulose) (HPC) 97 % of control | dose: 200.0 mg/kg/injection, schedule: Q01DX009 (ip), vehicle: Klucel (hydroxypropylcellulose) (HPC) 106 % of control | dose: 400.0 mg/kg/injection, schedule: Q01DX009 (ip), vehicle: Klucel (hydroxypropylcellulose) (HPC) 97 % of control

CCCCCCCCCCCCCSc1ccc(Br)cc1
inactive: [13] 96 % of control | [14] 96 % of control | [15] 96 % of control

CCOC(=O)/C=C1/Nc2cc(Cl)c(Cl)cc2NC1=O
inactive: [13] 97 % of control | [14] 95 % of control | [15] 89 % of control

COc1ccc2c(c1)CCC(C)(C#N)C2=O (centres undefined)
inactive: dose: 100.0 mg/kg/injection, schedule: Q01DX009 (ip), vehicle: saline sonified 91 % of control | [18] 96 % of control | dose: 400.0 mg/kg/injection, schedule: Q01DX009 (ip), vehicle: saline sonified 90 % of control

CC(C)(c1cccs1)c1cscc1C(=O)O
inactive: [1] 108 % of control | [2] 113 % of control | [3] 105 % of control

O=C(O)C1C(C(=O)O)C2(Cl)C(Cl)=C(Cl)C1(Cl)C2(Cl)Cl.[Mn] (centres undefined)
inactive: dose: 44.0 mg/kg/injection, schedule: Q01DX009 (ip), vehicle: saline 107 % of control | dose: 50.0 mg/kg/injection, schedule: Q01DX009 (ip), vehicle: saline sonified 114 % of control | dose: 66.0 mg/kg/injection, schedule: Q01DX009 (ip), vehicle: saline 105 % of control | [6] 105 % of control | [10] 97 % of control | dose: 150.0 mg/kg/injection, schedule: Q01DX009 (ip), vehicle: saline 112 % of control | [18] 104 % of control | [11] 95 % of control

CC(C)(C)COC(=O)C(C)(C)CC(C)(C)C
inactive: [4] 93 % of control | dose: 187.0 mg/kg/injection, schedule: Q01DX001 (ip), vehicle: carboxymethylcellulose (CMC) 92 % of control | [5] 102 % of control | dose: 267.0 mg/kg/injection, schedule: Q01DX001 (ip), vehicle: carboxymethylcellulose (CMC) 97 % of control | [7] 96 % of control | dose: 600.0 mg/kg/injection, schedule: Q01DX001 (ip), vehicle: carboxymethylcellulose (CMC) 96 % of control

CC(=O)c1ccc(F)c(C)c1
inactive: dose: 100.0 mg/kg/injection, schedule: Q04DX003 (ip), vehicle: saline sonified 93 % of control | dose: 200.0 mg/kg/injection, schedule: Q04DX003 (ip), vehicle: saline sonified 97 % of control | dose: 400.0 mg/kg/injection, schedule: Q04DX003 (ip), vehicle: saline sonified 93 % of control

NC(C1SCCS1)C(O)C(O)C(O)CO (centres undefined)
inactive: [6] 98 % of control | [16] 91 % of control | [17] 96 % of control

S=C(NCc1ccccc1)c1ccccc1
inactive: dose: 100.0 mg/kg/injection, schedule: Q01DX001 (ip), vehicle: Klucel (hydroxypropylcellulose) (HPC) 106 % of control | dose: 200.0 mg/kg/injection, schedule: Q01DX001 (ip), vehicle: Klucel (hydroxypropylcellulose) (HPC) 108 % of control | dose: 400.0 mg/kg/injection, schedule: Q01DX001 (ip), vehicle: Klucel (hydroxypropylcellulose) (HPC) 104 % of control
